Assay results published in US5700838A, “Hydroxamic acid derivatives as metalloproteinase inhibitors” (British Biotech Pharmaceuticals Limited, priority 1992, dated 1997).
Values after ≈ are worked out from the molar mass of the structure shown. Like-named read-outs stand apart in the source and are kept apart here.

Columns and labels:
[1] = test system: TNF α release from U937 cells; assay: Inhibition of PMA-stimulated TNF α release from U937 cells (ELISA); format: cell-based; settings: Homo sapiens, read-out: IC50 for release of TNF α (average concentration inhibiting release by 50% relative to control)
[2] = Blood concentration over time after oral gavage in rats, determined as collagenase inhibitory activity of extracts; settings: for AUC (0-6 h) in number of IC50's × hours: oral gavage, male rats, Example 1: average of two results; for AUC(0-t) at 6 h / Tmax: rat, po
Method: (§1) The concentration over time of compounds of the invention in the blood of laboratory animals following administration of the test compounds was measured.
(§2) Test compounds were administered by gavage to 6 male rats (300 g) per treatment group. Blood samples were removed by tail venepuncture at 0.5, 1.0, 2.0, 6.0 and 24 hours post administration. 0.4 ml of blood was placed into 4.5 ml tubes containing 0.1 ml acid citrate dextrose (ACD) as anti-coagulant. For extraction, 3 ml methanol was added and the precipitated blood pelletted by centrifugation (30 min at 3000 rpm). A 2 ml aliquot of supernatant was removed and concentrated by lyophilisation. The extract was redissolved in 200 μl DMSO and a 10 μl aliquot assayed for collagenase inhibitory activity.

[3] = test system: HOSP1.P mammary carcinoma cells; assay: Lung colonisation assay, rat mammary carcinoma model; format: in vivo
Method: The compound of example 1 above was tested for activity in vivo in a rat mammary carcinoma model. A lung colonisation assay was performed in order to determine whether the compound of example 1 above is effective in inhibiting lung colonisation by circulating HOSP1.P mammary carcinoma cells after oral administration.
HOSP1.P cells (1×10^5 cells/animal) were administered to two groups of 12 rats by injection into the jugular vein. The product of example 1 was administered p.o. to one group at 30 mg/kg at -4, +1, +6, +24 and +72 hours relative to tumor cell inoculation at 0 hours. The second (control) group received only vehicle (p.o.) by the same schedule. Animals were killed after 34 days. Lungs were removed and individual tumors counted after 24 hours fixation in Methacarn. […] (p<0.01, Mann-Whitney, two tailed).

[4] = Aqueous solubility at ambient temperature; format: physicochemical; settings: in water
Method: The solubilities of compounds of the invention in water at ambient temperature were measured, and compared with comparison compounds C1 and C2 (identified in Biological Example A above).

[5] = molecular target: T1, stromelysin (Homo sapiens, UniProt P08254); assay: biochemical
T1 sequence (P08254 100-477): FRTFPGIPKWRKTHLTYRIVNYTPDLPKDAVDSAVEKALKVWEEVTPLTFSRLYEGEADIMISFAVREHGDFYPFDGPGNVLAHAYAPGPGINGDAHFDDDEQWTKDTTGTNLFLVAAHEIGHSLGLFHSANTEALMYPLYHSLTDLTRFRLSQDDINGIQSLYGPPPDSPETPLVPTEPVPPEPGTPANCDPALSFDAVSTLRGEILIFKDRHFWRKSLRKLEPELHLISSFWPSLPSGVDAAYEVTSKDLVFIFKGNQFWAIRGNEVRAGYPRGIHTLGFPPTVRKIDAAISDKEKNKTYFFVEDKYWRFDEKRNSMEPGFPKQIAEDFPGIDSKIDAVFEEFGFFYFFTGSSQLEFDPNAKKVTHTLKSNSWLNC
From the text: (§3) The casein was acetylated ^14 C casein prepared by the method of Cawston et al (ibid).

[6] = test system: adjuvant-induced arthritis; assay: Adjuvant-induced arthritis model (hindpaw swelling); format: in vivo, male Lewis rats; settings: b.i.d. days 13 to 17, Example 1 dosed at 10 mg/kg
Method: The activities of the compound of example 1 above and comparison compound C1 (see Biological Example A above) were assessed in an adjuvant-induced arthritis model. Adjuvant arthritis was produced in male Lewis rats (Charles River) by a single intradermal injection of 0.75 mg of M. butyricum in light paraffin oil (Freunds complete adjuvant--FCA) into the base of the tail. The "secondary" lesion occurs after a delay of 10 days, and is characterised by inflammation of the […] volumes were measured plethysmographically by water displacement. The test compound was dosed b.i.d. from days 13 to 17. Paw volume on day 20 was measured and compared to that on day 13. The experiment was terminated on day 23.

[7] = molecular target: T2, collagenase (Homo sapiens, UniProt P03956); assay: biochemical
T2 sequence (P03956 100-469): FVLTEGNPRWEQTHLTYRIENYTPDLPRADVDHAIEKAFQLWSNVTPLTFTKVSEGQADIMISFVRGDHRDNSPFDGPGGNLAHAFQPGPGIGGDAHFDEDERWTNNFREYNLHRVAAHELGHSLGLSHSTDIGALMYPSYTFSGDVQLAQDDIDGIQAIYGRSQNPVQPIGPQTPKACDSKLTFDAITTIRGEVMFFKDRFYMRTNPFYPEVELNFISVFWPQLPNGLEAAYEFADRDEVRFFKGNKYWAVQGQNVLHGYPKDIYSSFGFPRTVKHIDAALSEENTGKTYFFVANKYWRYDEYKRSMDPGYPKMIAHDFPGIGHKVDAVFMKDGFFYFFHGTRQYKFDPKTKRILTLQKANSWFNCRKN
From the text: (§4) The samples were centrifuged to sediment undigested collagen, and an aliquot of the radioactive supernatant removed for assay on a scintillation counter as a measure of hydrolysis.

[8] = in vivo; settings: rat, po
Method: as §1, §2

[9] = rat, in vivo, po, 360 min
Method: as §1, §2

[10] = molecular target: T1, stromelysin; settings: read-out: Stromelysin IC50; 37°, 16 hours, pH 7.5
From the text: as §3

[11] = molecular target: T2, collagenase; settings: read-out: Collagenase IC50; 37°, 16 hours, pH 7.5
From the text: as §4

[12] = U-937, U937 cells, PMA 50 nM, 18 hours, 37° C.

| SMILES | solubility [4] | IC50 [5] | IC50 [7] | also measured |
| --- | --- | --- | --- | --- |
| CNC(=O)[C@H](CC1CCCCC1)NC(=O)[C@H](CC(C)C)[C@H](O)C(=O)NO [Example 1, N^2-[3S-Hydroxy-4-(N-hydroxyamino)-2R-isobutylsuccinyl]-L-cyclohexyl alanine-N^1 methylamide] | 0.1 mg/mL (≈ 269 µM) | 0.06 µM |  | IC50 [1, 12]: < 50 µM; AUC (0-6 h) in number of IC50's × hours [2]: 46.2 n IC50 's × h; AUC(0-t) at 6 h [2]: 0.143 µg·h/mL; Tmax [2]: 30 min; Lung Colony Number, Mean ([3]; 30 mg/kg p.o. at -4, +1, +6, +24, +72 hours, 34 days, control mean 70.50): 38.91; Lung Colony Number, Median ([3]; 30 mg/kg p.o. at -4, +1, +6, +24, +72 hours, 34 days, control median 71.50, p <0.01): 38.50; extrapulmonary tumors ([3]; 30 mg/kg p.o., 34 days): No extrapulmonary tumors were found; inhibition of lung colonisation relative to control group ([3]; 30 mg/kg p.o., p<0.01, Mann-Whitney, two tailed): significant inhibition of lung colonisation relative to the control group; reduction in swelling relative to control (paw volume day 20 vs day 13) [6]: statistically significant (p<0.01) reduction in swelling relative to control |
| CNC(=O)[C@H](Cc1ccc(OCC(=O)O)cc1)NC(=O)[C@H](CC(C)C)[C@H](O)C(=O)NO [Example 2, N^2-[3S-Hydroxy-4-(N-hydroxyamino)-2R-isobutylsuccinyl]-L-(4-oxymethylcarboxy) phenylalanine-N^1-methylamide] | 13.1 mg/mL (≈ 29900 µM) | 0.2 µM | 0.03 µM | IC50 [1, 12]: < 50 µM |
| CNC(=O)[C@@H](NC(=O)[C@H](CC(C)C)[C@H](O)C(=O)NO)c1ccccc1 [Example 3, N^2-[3S-Hydroxy-4-(N-hydroxyamino)-2R-isobutylsuccinyl]-L-phenylglycine-N^1-methylamide] | 2.34 mg/mL (≈ 6660 µM) |  | 0.1 µM |  |
| CNC(=O)[C@H](Cc1ccc(-c2ccccc2)cc1)NC(=O)[C@H](CC(C)C)[C@H](O)C(=O)NO [Example 4, N^2-[3S-Hydroxy-4-(N-hydroxyamino)-2R-isobutylsuccinyl]-L-(4-phenyl)-phenylalanine-N^1-methylamide] | 0.11 mg/mL (≈ 249 µM) |  |  |  |
| CC(C)C[C@@H](C(=O)NC1CCCCCCCCCCNC1=O)[C@H](O)C(=O)NO (stereo partly drawn) [Example 5, N^3-[3S-Hydroxy-4-(N-hydroxyamino)-2R-isobutylsuccinyl]amino-1-azacyclotridecan-2-one] | 0.14 mg/mL (≈ 350 µM) |  | 0.02 µM | IC50 [1, 12]: < 50 µM |
| CNC(=O)[C@H](Cn1cccn1)NC(=O)[C@H](CC(C)C)[C@H](O)C(=O)NO [Example 6, N^2-[3S-Hydroxy-4-(N-hydroxyamino)-2R-isobutylsuccinyl]-L-3-(1-pyrazolyl)alanine-N^1-methylamide] | 0.33 mg/mL (≈ 929 µM) | 3 µM | 0.03 µM |  |
| CNC(=O)[C@H](CCC(=O)NO)NC(=O)[C@H](CC(C)C)[C@H](O)C(=O)NO [Example 7, N^2-[3S-Hydroxy-4-(N-hydroxyamino)-2R-isobutylsuccinyl]-L-4-(N-hydroxyamino)glutamic acid-N^1-methylamide] | 0.18 mg/mL (≈ 497 µM) | 0.5 µM | 0.15 µM |  |
| CNC(=O)[C@H](Cc1cccs1)NC(=O)[C@H](CC(C)C)[C@H](O)C(=O)NO [Example 8, N^2-[3S-Hydroxy-4-(N-hydroxyamino)-2R-isobutylsuccinyl]-L-3-(2-thienyl)alanine-N^1-methylamide] |  | 0.1 µM | 0.01 µM |  |
| CC(C)C[C@@H](C(=O)N[C@@H](CC1CCCCC1)C(=O)NCCCN1CCCC1=O)[C@H](O)C(=O)NO [Example 9, N^2-[3S-Hydroxy-4-(N-hydroxyamino)-2R-isobutylsuccinyl]-L-cyclohexyl alanine-N^1-(3-(2-pyrrolidone)propyl)amide] | 1.8 mg/mL (≈ 3730 µM) |  | 0.03 µM |  |
| CNC(=O)[C@@H](NC(=O)[C@H](CC(C)C)[C@H](O)C(=O)NO)C(C)(C)C [Example 10, N^2-[3S-Hydroxy-4-(N-hydroxyamino)-2R-isobutylsuccinyl]-L-tert-leucine-N^1-methylamide] | 1.4 mg/mL (≈ 4220 µM) |  |  | IC50 ([1]; U-937, 18 h): < 50 µM; AUC(0-t) at 6 h [8]: 0.343 µg·h/mL; Tmax [8]: 30 min; AUC (0-6 h) in number of IC50's × hours [9]: 190 n IC50 's × h |
| CCOC(=O)[C@H](C)NC(=O)[C@H](CC(C)C)NC(=O)[C@@H](CC(=O)NO)CC(C)C [Example C1, reference compound] | 0.3 mg/mL (≈ 747 µM) | 0.3 µM | 0.015 µM | AUC (0-6 h) in number of IC50's × hours [2]: 7.4 n IC50 's × h; AUC(0-t) at 6 h [2]: 0.0917 µg·h/mL; Tmax [2]: 30 min; reduction in swelling relative to control (paw volume day 20 vs day 13) [6]: no effect |
| CCOC(=O)CNC(=O)[C@H](CC(C)C)NC(=O)[C@H](CC(C)C)[C@H](CCCCN1C(=O)c2ccccc2C1=O)C(=O)NO [Example C2] | < 0.1 mg/mL |  |  | AUC (0-6 h) in number of IC50's × hours [2]: 2.12 n IC50 's × h; AUC(0-t) at 6 h [2]: 0.0053 µg·h/mL; Tmax [2]: 60 min; IC50 [10]: 0.07 µM; IC50 [11]: 0.007 µM |
